Measured values as given in patent US20050260136A1, “Topical immune competency diagnostic compositions and methods of use” (priority 2004, published 2005).

Columns and labels:
[1] = test system: HIV sero-positive AIDS patients; assay: Topical DPC skin reaction test (Reactors/Non-Reactors) in a 28-day observational clinical trial; type: in vivo, human; details: for # Non-Reactor Patients / # Non-Reactor Patients (%) / # Reactor Patients / # Reactor Patients (%): right forearm
Method: (§1) For the examples, HIV sero-positive AIDS patients were tested based on HIV sero-positivity for a 28-day observational clinical trial. 40 subjects completed the study. Topical 0.1 ml applications of 0.4%, 0.2%, 0.1%, 0.05% Diphenylcyclopropenone in a proprietary anhydrous skin penetrating vehicle plus the vehicle placebo were made to the inner aspect of the forearms of patients and covered with a 1 inch adhesive bandage. Skin reactivity scores of a 4-point scaled based on induration and erythema were recorded weekly, as were side effects to the topical treatments.
For the examples, skin reaction scores were assigned using the following scale:
For the examples, patients having a skin reaction score of +2, +3 and +4 were considered to have a positive response and are labeled as “Reactors”; patients having a skin reaction score of 0 and +1 were considered to not have a response and are labeled as “Non-Reactors”.
Skin Reactions Scores as indicators of immune function responses following single applications of 0.4%, 0.2%, 0.1% and 0.05% DPC compositions were used to distinguish between patients with T Cell CD4 blood counts less than 300 per cu/mm and patients with T Cell CD4 counts higher than 300 per cu/mm.

[2] = test system: HIV sero-positive AIDS patients; assay: Side effects of the topical treatments in the 28-day clinical trial; type: in vivo, human; details: 28-day study
Method: as §1
Subjects with CD4 counts less than 300 cu/mm were non-skin reactive. This was found in 36 of the 40 subjects. […] Statistical Sensitivity was 87.4% and Specificity was 100% with the 0.4% Topical Diphenylcyclopropenone Solution selected as the optimal dosage concentration. […] None of the subjects withdrew because of side effects.

[3] = 0.05% DPC applied, patients with CD4 <300 cu/mm
[4] = 0.05% DPC applied, patients with CD4 >300 cu/mm
[5] = 0.1% DPC applied, patients with CD4 <300 cu/mm
[6] = 0.1% DPC applied, patients with CD4 >300 cu/mm
[7] = 0.2% DPC applied, patients with CD4 <300 cu/mm
[8] = 0.2% DPC applied, patients with CD4 >300 cu/mm
[9] = 0.4% DPC applied, patients with CD4 <300 cu/mm
[10] = 0.4% DPC applied, patients with CD4 >300 cu/mm
[11] = combined 0.1% + 0.05% DPC dosages, patients with CD4 <300 cu/mm
[12] = combined 00.1% + 0.05% DPC dosages, patients with CD4 >300 cu/mm
[13] = combined 0.4% + 0.2% DPC dosages, patients with CD4 <300 cu/mm
[14] = combined 0.4% + 0.2% DPC dosages, patients with CD4 >300 cu/mm

O=c1c(-c2ccccc2)c1-c1ccccc1 [DPC, Diphenylcyclopropenone]
# Non-Reactor Patients [1, 3]: 2
# Non-Reactor Patients (%) [1, 3]: 100%
# Reactor Patients [1, 3]: 0 (0%)
# Reactor Patients (%) [1, 3]: 0 (0%)
# Non-Reactor Patients [1, 4]: 8
# Non-Reactor Patients (%) [1, 4]: 100%
# Reactor Patients [1, 4]: 0 (0%)
# Reactor Patients (%) [1, 4]: 0 (0%)
# Non-Reactor Patients [1, 5]: 2
# Non-Reactor Patients (%) [1, 5]: 100%
# Reactor Patients [1, 5]: 0 (0%)
# Reactor Patients (%) [1, 5]: 0 (0%)
# Non-Reactor Patients [1, 6]: 4
# Non-Reactor Patients (%) [1, 6]: 80%
# Reactor Patients [1, 6]: 1
# Reactor Patients (%) [1, 6]: 20%
# Non-Reactor Patients [1, 7]: 2
# Non-Reactor Patients (%) [1, 7]: 40%
# Reactor Patients (%) [1, 7]: 60%
# Non-Reactor Patients (%) [1, 8]: 28.6%
# Reactor Patients [1, 8]: 5
# Reactor Patients (%) [1, 8]: 71.4%
# Non-Reactor Patients (%) [1, 9]: 100%
# Reactor Patients (%) [1, 9]: 0 (0%)
# Non-Reactor Patients ([1]; 0.4% DPC applied, patients with CD4 <300 cu/mm, Non-Reactor = score 0 or +1): 4
# Non-Reactor Patients (%) [1, 10]: 14.3%
# Reactor Patients [1, 10]: 6
# Reactor Patients (%) [1, 10]: 85.7%
subjects in whom skin reactivity agreed with CD4 count (>300 cu/mm reactive, <300 cu/mm non-skin reactive) ([1]; all 40 subjects of the study): 36 of the 40
Non-Reactors [1, 11]: 4
Non-Reactors (%) [1, 11]: 100%
Reactors [1, 11]: 0 (0%)
Reactors (%) [1, 11]: 0 (0%)
Non-Reactors [1, 12]: 12
Non-Reactors (%) [1, 12]: 92.3%
Reactors [1, 12]: 1
Reactors (%) [1, 12]: 7.7%
Non-Reactors [1, 13]: 6
Non-Reactors (%) [1, 13]: 67%
Reactors [1, 13]: 3
Reactors (%) [1, 13]: 33%
Non-Reactors [1, 14]: 3
Non-Reactors (%) [1, 14]: 21.4%
Reactors [1, 14]: 11
Reactors (%) [1, 14]: 78.6%
subjects who withdrew because of side effects ([2]; 40 subjects): None
Side effects ([2]; topical 0.1 ml applications of 0.05-0.4% DPC): minimal and were limited to adenopathies that were self-limited and disappeared upon completion of the study
